Series [1] is described as follows: Dissociation constant, pKa of the compound in aqueous solution by spectrophotometry. The format is physicochemical.
The nature of series [2]: Binding affinity to adenosine monophosphate in phosphate buffer by ARS competition assay at pH 7.4.
Series [3] in a line: Dissociation constant, pKa of the compound in aqueous solution by [11]B-NMR analysis. The format is physicochemical.

Activity calls are given as the source filed them. The rule behind the calls is not given here.

One may read the pKa as the pH at which an ionisable group is half protonated. High values mean a weaker acid or stronger base, low ones a stronger acid or weaker base.

Compound `CC1(C)OB(O)c2ccccc21` came in with a pKa in series [1] of 8.32. Take `OB1OCc2cc(C(F)(F)F)ccc21`: in series [2], the outcome was Active.

In the case of `OB1OCCc2ccccc21` [BENZOXABORIN], the pKa in series [3] and in series [1] was 8.4 throughout. For `OB1OCc2ccccc21` [BENZOXABOROLE], in series [2], the result was Active. Moreover, the pKa came out at 7.2 in series [3] and 7.34 in series [1].

Values taken from ChEMBL document CHEMBL2034915, “Ring Structure and Aromatic Substituent Effects on the pK a of the Benzoxaborole Pharmacophore” (ACS Med Chem Lett, 2012).
